Experimental findings from US20180344715A1, “WNT/BETA-CATENIN SIGNAL TRANSDUCTION INHIBITORS AND THEIR USE IN TREATMENT OR PREVENTION OF DISEASES AND CONDITIONS LINKED WITH SAID TRANSDUCTION” (BERGEN TEKNOLOGIOVERFORING AS, priority 2015, published 2018) are described below.

One assay has as its target T1, GFP-SHPRH (Homo sapiens, UniProt Q149N8).
T1 construct: expressed in transfected cells; host or cells: SW480
Kind of assay: MST ligand-binding assay, GFP-SHPRH in SW480 cell lysates. Particulars: 25° C., 4 replicates.

Another assay has as its system SW480-7TGC cells. The assay is described as follows: Flow cytometry of SW480-7TGC cells with Hoechst33342. The assay is classed as cell-based. The conditions noted are these: 24 hours.
For assay [1], the system named is HCT116 cells. The assay is described as follows: Soft agar colony-formation assay, HCT116. The assay is classed as cell-based. Particulars: 10 days. The procedure:
The soft agar colony-formation assay was performed using the CellTransformation Assays kit (catalog no. CBA-130; Cell Biolabs, Inc.) according to the recommended protocol. […] Medium containing drugs was replaced every 3 d. For the clonogenic assay, positively transfected cells (wild-type and mutant GFP-SHPRH and control GFP) were enriched by FACS and were seeded in six-well plates at a density of 3,000 cells per well. Medium was changed every 3 d. On the last day colony growth was quantified by crystal violet staining and measurement of OD at 590 nm.

For assay [2], the system named is HCT116 cells. The assay is described as follows: EdU label release assay, HCT116. Format: cell-based. Particulars: HCT116, 5 μM, 3 days. The procedure: Two days later, cells were seeded singly onto 12 mm glass coverslips in 24-well plates. One day after, EdU was detected using the Click-iT® Plus EdU Alexa Fluor 488 Imaging Kit (Life Technologies, C10637) according to the manufacturer's protocol. For double staining of EdU and other proteins, the EdU stained cells were further used for immunofluorescence staining as described above. Intensity of EdU staining in paired cells were quantified by Photoshop CS6 software, unequal EdU distribution was considered when paired cells had intensity ratio higher than 2.

For the next assay, the system named is β-catenin. The assay is described as follows: In vivo ubiquitination assay in SW480 cells. The conditions noted are these: SW480, with proteasome inhibitor MG132, 6 hours. Format: cell-based. The procedure:
Cells were harvested and re-suspended with 100 μl ice cold TBS (50 mM Tris-HCL pH 8.0, 150 mM NaCl) containing 2 μM N-Ethylmaleimide crystalline that was supplemented to all the following buffers. After adding 120 μl TBS containing 2% SDS and mixing quickly, cells were heated at 98° C. for 10 minutes and placed immediately on ice for 5 minutes. Cell lysates were incubated with 1.8 ml TBS containing 1% Triton X-100 and 3 μg antibody (β-catenin ab22656, clone 12F7, Abcam; SHPRH, ab80129, Abcam), at 4° C. overnight followed by incubation with 100 μl Protein G beads (Life technologies, 10004D) at 4° C. for 1 hour on rotator. Beads were collected with Magnet and serially washed once with 1 ml TBS containing 1% Triton X-100/0.1% SDS, twice with 1 ml TBS containing 0.5M LiCl and once with 1 ml TBS containing 1% Triton X-100. Following addition of 80 μl 2% SDS sample buffer containing 10 mM DTT (Sigma, D9779), the beads were boiled at 98° C. for 5 minutes and collected with Magnet, the supernatant was analyzed by Western blotting.

A further assay concerns the target T2, MED23 and β-catenin (Homo sapiens, UniProt Q9ULK4).
T2 construct: endogenous in cells; host or cells: SW480
T2 sequence (Q9ULK4 1-1368): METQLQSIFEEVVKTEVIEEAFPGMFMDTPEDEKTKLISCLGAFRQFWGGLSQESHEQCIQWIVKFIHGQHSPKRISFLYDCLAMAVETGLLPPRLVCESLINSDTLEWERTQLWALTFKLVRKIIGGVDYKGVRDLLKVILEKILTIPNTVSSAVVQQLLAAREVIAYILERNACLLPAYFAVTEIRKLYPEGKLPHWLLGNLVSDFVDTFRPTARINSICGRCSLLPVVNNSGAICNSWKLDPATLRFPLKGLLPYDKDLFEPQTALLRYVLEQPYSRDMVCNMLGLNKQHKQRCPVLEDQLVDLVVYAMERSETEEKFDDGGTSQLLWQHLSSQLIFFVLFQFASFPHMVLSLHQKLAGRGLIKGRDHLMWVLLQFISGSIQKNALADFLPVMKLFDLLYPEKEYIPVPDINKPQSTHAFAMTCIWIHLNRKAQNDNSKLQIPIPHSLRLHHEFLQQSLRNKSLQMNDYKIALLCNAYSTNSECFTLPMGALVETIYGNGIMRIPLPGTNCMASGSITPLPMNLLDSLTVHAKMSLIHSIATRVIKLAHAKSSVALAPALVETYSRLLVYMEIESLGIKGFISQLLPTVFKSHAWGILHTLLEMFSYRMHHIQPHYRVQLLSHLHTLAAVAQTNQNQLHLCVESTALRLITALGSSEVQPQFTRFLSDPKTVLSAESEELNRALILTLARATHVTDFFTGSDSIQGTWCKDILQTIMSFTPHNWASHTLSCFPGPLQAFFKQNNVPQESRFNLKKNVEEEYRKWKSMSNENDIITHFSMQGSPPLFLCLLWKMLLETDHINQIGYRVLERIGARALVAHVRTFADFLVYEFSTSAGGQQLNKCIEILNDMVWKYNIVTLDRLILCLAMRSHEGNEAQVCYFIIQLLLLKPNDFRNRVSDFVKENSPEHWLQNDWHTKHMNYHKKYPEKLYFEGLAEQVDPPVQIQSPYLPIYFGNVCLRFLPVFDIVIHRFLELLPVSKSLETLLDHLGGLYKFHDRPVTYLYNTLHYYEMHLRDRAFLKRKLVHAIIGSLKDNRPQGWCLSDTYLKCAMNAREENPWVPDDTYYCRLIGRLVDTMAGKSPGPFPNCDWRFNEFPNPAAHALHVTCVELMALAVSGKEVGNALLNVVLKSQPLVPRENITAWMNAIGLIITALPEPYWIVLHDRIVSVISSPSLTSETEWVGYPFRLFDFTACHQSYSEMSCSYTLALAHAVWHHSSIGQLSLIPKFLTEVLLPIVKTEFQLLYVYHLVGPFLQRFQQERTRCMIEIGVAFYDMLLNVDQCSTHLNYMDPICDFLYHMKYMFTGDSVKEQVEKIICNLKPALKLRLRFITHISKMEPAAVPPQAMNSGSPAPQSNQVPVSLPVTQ
Kind of assay: Co-immunoprecipitation of MED23 and β-catenin. Format: cell-based. The conditions noted are these: SW480, 5 μM, 4 hours. The procedure:
Co-IP was done following the protocol of Dynabeads Co-Immunoprecipitation Kit (Life Technologies, 14321D). […] After saving 2% samples for input control, cell lysates were equally divided between 3 tubes, incubated with 3 mg Dynabeads and 21 μg mouse IgG (15381, Sigma), primary antibody against MED23 (BD550429, clone D27-1805, BD Biosciences) and β-catenin (ab22656, clone 12F7, Abcam), respectively. Input controls and proteins pulled down with individual antibodies were examined by Western blotting.

T1 sequence (Q149N8 whole entry): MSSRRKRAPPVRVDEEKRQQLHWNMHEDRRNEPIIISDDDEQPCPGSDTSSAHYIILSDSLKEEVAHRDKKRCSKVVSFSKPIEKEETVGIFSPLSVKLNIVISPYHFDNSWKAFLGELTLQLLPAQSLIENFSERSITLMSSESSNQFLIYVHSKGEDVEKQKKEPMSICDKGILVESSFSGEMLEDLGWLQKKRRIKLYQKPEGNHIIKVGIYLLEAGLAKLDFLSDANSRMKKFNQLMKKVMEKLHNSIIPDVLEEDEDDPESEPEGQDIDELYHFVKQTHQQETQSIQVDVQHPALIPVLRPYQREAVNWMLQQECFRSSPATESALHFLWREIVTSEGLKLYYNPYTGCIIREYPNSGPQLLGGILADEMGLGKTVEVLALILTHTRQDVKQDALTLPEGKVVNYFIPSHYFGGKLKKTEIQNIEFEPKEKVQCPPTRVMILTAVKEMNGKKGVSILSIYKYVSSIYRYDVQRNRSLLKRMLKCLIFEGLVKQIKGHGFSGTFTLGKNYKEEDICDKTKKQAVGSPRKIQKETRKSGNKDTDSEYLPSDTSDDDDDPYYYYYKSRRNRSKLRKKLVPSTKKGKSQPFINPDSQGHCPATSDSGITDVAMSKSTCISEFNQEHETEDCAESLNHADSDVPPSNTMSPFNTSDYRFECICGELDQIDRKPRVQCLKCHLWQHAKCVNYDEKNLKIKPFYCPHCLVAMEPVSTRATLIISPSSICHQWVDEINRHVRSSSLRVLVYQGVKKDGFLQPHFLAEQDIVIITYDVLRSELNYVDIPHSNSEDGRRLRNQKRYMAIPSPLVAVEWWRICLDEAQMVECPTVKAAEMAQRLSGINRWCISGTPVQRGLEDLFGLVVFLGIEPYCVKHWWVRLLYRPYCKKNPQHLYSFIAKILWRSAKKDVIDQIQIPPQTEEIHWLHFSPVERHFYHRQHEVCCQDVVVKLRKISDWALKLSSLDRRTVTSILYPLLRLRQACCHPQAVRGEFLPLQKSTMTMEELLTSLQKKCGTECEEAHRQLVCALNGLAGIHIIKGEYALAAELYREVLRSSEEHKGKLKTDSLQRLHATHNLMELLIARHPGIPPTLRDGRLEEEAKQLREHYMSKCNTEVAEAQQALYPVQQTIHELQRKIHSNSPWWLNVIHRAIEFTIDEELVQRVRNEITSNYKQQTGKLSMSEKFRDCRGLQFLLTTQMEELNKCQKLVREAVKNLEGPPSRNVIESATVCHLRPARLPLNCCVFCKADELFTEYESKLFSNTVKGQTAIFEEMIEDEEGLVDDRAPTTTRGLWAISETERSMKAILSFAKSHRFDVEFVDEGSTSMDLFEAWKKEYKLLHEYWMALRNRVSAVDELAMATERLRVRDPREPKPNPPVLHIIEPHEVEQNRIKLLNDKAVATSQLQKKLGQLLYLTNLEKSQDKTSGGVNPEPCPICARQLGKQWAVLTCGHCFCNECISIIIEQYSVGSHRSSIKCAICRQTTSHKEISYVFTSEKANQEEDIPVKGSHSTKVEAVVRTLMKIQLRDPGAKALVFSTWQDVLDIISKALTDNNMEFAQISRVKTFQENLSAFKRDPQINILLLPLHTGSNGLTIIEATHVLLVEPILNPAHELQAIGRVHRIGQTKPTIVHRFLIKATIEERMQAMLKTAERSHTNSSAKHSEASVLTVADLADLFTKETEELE
Procedure for GFP-SHPRH: Ten million SW480 cells overexpressing GFP-tagged SHPRH or free GFP were lysed in 1 mL radioimmunoprecipitation assay (RIPA) buffer. Cell lysates were diluted in buffer A [50 mM Hepes buffer (pH 7.5), 5 mM DTT, 10 mM CaCl2), 50 mM NaCl, and 0.05% Tween-20] to a final concentration at which the fluorescent signals of the GFP proteins were similar and well above the detection limit of the Monolith NT.115 instrument (NanoTemper Technologies GmbH). Ten microliters of each receptor were mixed with 10 μL of the ligand at various concentrations from 100 μM to 3.05 nM. Specifically, the ligand (4 mM in 100% DMSO) was diluted 1:20 to a final concentration of 200 μM in buffer A (giving 5% DMSO). Ten microliters of the 200 μM ligand solution was further serially diluted 1:1 in 10 μL of buffer A supplemented with 5% DMSO to make a 16-sample dilution series down to 6.1 nM. Ten microliters of the cell lysate were added to 10 μL of each ligand solution. […] The fluorescence signal during the thermophoresis was monitored for 30 s, and the change in fluorescence was analyzed as thermophoresis with T-jump. The Kd was calculated by fitting a standard binding curve to the average of four independent dilution series.
Procedure for SW480-7TGC cells: To establish stable cell lines containing Wnt reporters, lentiviral vector 7TGC or 7TC together with packaging plasmids pMD2.G and pCMVR8.74 were co-transfected into 293FT cells with lipofectamine 3000. After 16 hours, culture medium was replaced with medium for cells of interest. One day later, the culture medium was filtered through a 0.45 μm filter and incubated with cells for 24 hours. The transduced cells were assessed by fluorescence microscopy and fluorescence-activated cell sorting (FACS Aria, BD Biosciences).

Compound `CNC(=O)c1ccccc1Sc1ccc2c(/C=C/c3ccccn3)n[nH]c2c1` [axitinib, N-Methyl-2-[[3-[(E)-2-pyridin-2-ylethenyl]-1H-indazol-6-yl]sulfanyl]benzamide] displayed a Kd at GFP-SHPRH of 10.4 ± 3.3 µM. Also, in the assay on SW480-7TGC cells, the “TCF-GFP^low cells” value is listed as “increased”. Besides, the “apoptosis in TCF-GFP^low cells” value in the assay on SW480-7TGC cells (Hoechst33342) is listed as “induced apoptosis”. Besides, in the assay with HCT116 cells [1], the colony growth entry is “strongly and dose-dependently inhibited”. The “EdU ACD” value in the assay on HCT116 cells [2] is on record as “increased significantly”. Also, the “ubiquitination of β-catenin” value with β-catenin is on record as “increased its ubiquitination”. Further, at MED23 and β-catenin, the “endogenous association of MED23 and β-catenin” value is listed as “disrupted”.
